# Experimental data taken from patent publication EP2801573A1, “Hydantoine derivatives as CD38 inhibitors” (SANOFI, priority 2013, dated 2014).
# Counter-ions that a name gives are not always drawn.
# What was measured:
# [1] = biological target: T1, natural cell surface human CD38 enzyme (Homo sapiens, UniProt P28907); experiment: Cell surface enzyme assay on A549 cells; assay type: cell-based; details: A549 human lung epithelial cells, pre-incubated 15 min, ε-NAD 100 µM, 60 min, pH=7.4
# T1 construct: The A549 cells express active CD38 enzyme on the cell surface; endogenous in cells; host or cells: A549 human lung epithelial cells (ATCC CCL 185)
# T1 sequence (P28907 1-300): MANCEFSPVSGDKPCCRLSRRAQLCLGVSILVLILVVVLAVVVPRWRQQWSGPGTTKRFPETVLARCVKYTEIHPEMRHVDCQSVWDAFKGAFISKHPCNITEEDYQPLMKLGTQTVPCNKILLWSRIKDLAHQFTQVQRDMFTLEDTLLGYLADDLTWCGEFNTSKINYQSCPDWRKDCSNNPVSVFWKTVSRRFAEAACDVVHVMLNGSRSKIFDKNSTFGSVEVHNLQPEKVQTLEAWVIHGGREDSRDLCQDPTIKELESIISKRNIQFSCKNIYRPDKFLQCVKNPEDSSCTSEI
# Procedure: A549 human lung epithelial cells were used as enzyme source. The A549 cells express active CD38 enzyme on the cell surface.
# (§1) N6-etheno-NAD (ε-NAD), a NAD analogue previously shown to be a convenient substrate of CD38 enzyme activity (Graeff et al. J. Biol. Chem. 269, pp 30260-30367, […]) was used to measure the activity of human recombinant CD38 and cell surface enzyme activity.
# Type II-like human lung epithelial cells A 549 (ATCC CCL 185) were grown in RPMI 1640 medium supplemented with 10% fetal calf serum, 2mM 1-glutamine and penicillin/streptomycin 1% in a humidified incubator with an atmosphere of 95% air and 5% CO2 at 37 °C. At about 70-80% confluence, cells were detached with trypsin/EDTA solution to form a cell suspension and counted. Cell viability was higher as 95% using trypan blue dye. Cells were plated at a density of 500.000 cells/well (24 well plate), before 24 hours of starting the enzyme assay. The medium was removed and replaced by assay buffer (20 mM HEPES, pH=7.4 containing 140 mM NaCl, 5 mM KCl, 1 mM MgSO4 1 mM CaCl2, 1mM Na2HPO4, 5.5 mM glucose).
# A549 cells (800.000/well, 500 µl) were pre-incubated in the presence and absence of inhibitors for 15 min before the addition of ε-NAD, final substrate concentration was 100 µM. After 60 min, the plate was centrifuged and 100 µl of supernatant was removed and measured fluorimetrically in BMG Polarstar spectrofluorimeter at an emission wavelength of 410 nm and an excitation of 300 nm. The mean difference in the fluorescence between reaction stopped at 0 and 60 min was used an arbitrary unit of NADase activity. The NADase activity in the absence and presence of inhibitors were compared and IC50 values were calculated.
# [2] = biological target: T2, human recombinant CD38 enzyme (Homo sapiens, UniProt P28907); experiment: Human recombinant enzyme assay (fluorimetric CD38 enzyme assay, ε-NAD substrate); assay type: biochemical; details: recombinant CD38 100 ng/ml, ε-NAD 100 µM, pH = 6.0, 37°C, reaction time 30 min; read-out: IC50 (nM) ENAD
# T2 construct: purchased R&D Systems H7006
# T2 sequence (P28907 1-300): T1 sequence (P28907 1-300)
# Procedure: Enzyme assay on human recombinant CD38 enzyme were performed in order to determine the in vitro potency of the newly synthesized compounds. IC50 values were determined for the test compounds and used to explore the structure-activity relationships (SAR).
# as §1
# A fluorimetric CD38 enzyme assay was performed as described by Graeff et al. The reaction was started with 10 µl of N6-etheno-NAD (ε-NAD) substrate, final concentration 100 µM, in a final volume of 0.1 ml buffered with 50 mM HEPES, 0.05% BRIJ, pH = 6.0 containing 100 ng/ml recombinant CD38 (R&D Systems, H7006). Cleavage of ε-NAD, which causes a 10-fold fluorescence enhancement, was continuously followed at 37°C in a BMG Polarstar spectrofluorometer at an emission wavelength of 410 nm and an excitation of 300 nm, reaction time was 30 min. NADase activity was expressed as Δ relative fluorescence/min. The rate of enzyme reactions were compared in the presence and absence of inhibitor molecule, the IC50 values were calculated with Biostat Speed program.
Structure (SMILES),IC50 [1],IC50 [2]
"CCCCc1ccc(N2C(=O)N/C(=C\c3ccncc3)C2=O)cc1 [Compound 24, 3-(4-Butyl-phenyl)-5-[1-pyridin-4-yl-meth-(Z)-ylidene]-imidazolidine-2,4-dione]",297 nM,80 nM
"O=C1N/C(=C\c2ccncc2)C(=O)N1c1ccc(Cl)cc1 [Compound 2, 3-(4-Chloro-phenyl)-5-[1-pyridin-4-yl-meth-(Z)-ylidene]-imidazolidine-2,4-dione]",181 nM,30 nM
"O=C1N/C(=C\c2ccncc2)C(=O)N1c1ccccc1 [Compound 1, 3-Phenyl-5-[1-pyridin-4-yl-meth-(Z)-ylidene]-imidazolidine-2,4-dione.HCl salt]",,30 nM
"N#Cc1ccc(N2C(=O)N/C(=C\c3ccncc3)C2=O)cc1 [Compound 11, 4-{2,5-Dioxo-4-[1-pyridin-4-yl-meth-(Z)-ylidene]-imidazolidin-1-yl} -benzonitrile]",,30 nM
"O=C1N/C(=C\c2ccncc2)C(=O)N1c1ccc(I)cc1 [Compound 33, 3-(4-Iodo-phenyl)-5-[1-pyridin-4-yl-meth-(Z)-ylidene]-imidazolidine-2,4-dione]",272 nM,38 nM
"O=C1N/C(=C\c2ccncc2)C(=O)N1c1cccc(C(F)(F)F)c1 [Compound 16, 5-[1-Pyridin-4-yl-meth-(Z)-ylidene]-3-(3-triftuoromethyl-phenyl)-imidazolidine-2,4-dione]",,77 nM
"Cc1cccc(N2C(=O)N/C(=C\c3ccncc3)C2=O)c1 [Compound 3, 5-[1-Pyridin-4-yl-meth-(Z)-ylidene]-3-m-tolyl-imidazolidine-2,4-dione]",,50 nM
"O=C1N/C(=C\c2ccncc2)C(=O)N1c1ccc(Br)cc1 [Compound 20, 3-(4-Bromo-phenyl)-5-[1-pyridin-4-yl-meth-(Z)-ylidene]-imidazolidine-2,4-dione]",,20 nM
"CCCCCCN1C(=O)N/C(=C\c2ccncc2)C1=O [Compound 22, 3-Hexyl-5-[1-pyridin-4-yl-meth-(Z)-ylidene]-imidazotidine-2,4-dione]",,55 nM
"CC(C)N1C(=O)N/C(=C\c2ccncc2)C1=O [Compound 21, 3-Isopropyl-5-[1-pyridin-4-yl-meth-(Z)-ylidene]-imidazolidine-2,4-dione]",,40 nM
"O=C(O)c1cccc(N2C(=O)N/C(=C\c3ccncc3)C2=O)c1 [Compound 27, 3-{2,5-Dioxo-4-[1-pyridin-4-yl-meth-(Z)-ylidene]-imidazolidin-1-yl}-benzoic acid]",,56 nM
"O=C(O)c1ccc(N2C(=O)N/C(=C\c3ccncc3)C2=O)cc1 [Compound 15, 4-{2,5-Dioxo-4-[1-pyridin-4-yl-meth-(Z)-ylidene]-imidazolidin-l-yl}-benzoic acid]",,110 nM

# The next lines start with the values.
IC50 [1],IC50 [2],Structure (SMILES)
359 nM,50 nM,"O=C(c1cccc(N2C(=O)N/C(=C\c3ccncc3)C2=O)c1)N1CCOCC1 [Compound 28, 3-[3-(Morpholine-4-carbonyl)-phenyl]-5-[1-pyridin-4-yl-meth-(Z)-ylidene]-imidazolidine-2,4-dione]"
249 nM,50 nM,"O=C1N/C(=C\c2ccncc2)C(=O)N1C1CC(F)(F)C1 [Compound 53, 3-(3,3-Difluoro-cyclobutyl)-5-[1-pyridin-4-yl-meth-(Z)-ylidene]-imidazolidine-2,4-dione]"
137 nM,20 nM,"O=C1N/C(=C\c2ccncc2)C(=O)N1CC1CCOCC1 [Compound 56, 5-[1-Pyridin-4-yl-meth-(Z)-ylidene]-3-(tetrahydro-pyran-4-ylmethyl)-imidazolidine-2,4-dione]"
246 nM,30 nM,"O=C1N/C(=C\c2ccncc2)C(=O)N1CC1(O)CCCC1 [Compound 58, 3-(1-Hydroxy-cyclopentylmethyl)-5-[1-pyridin-4-yl-meth-(Z)-ylidene]-imidazolidine-2,4-dione]"
242 nM,55 nM,"O=C1N/C(=C\c2ccncc2)C(=O)N1CC1(O)CCCCC1 [Compound 55, 3-(1-Hydroxy-cyclohexylmethyl)-5-[1-pyridin-4-yl-meth-(Z)-ylidene]-imidazotidine-2,4-dione]"
288 nM,25 nM,"CC(C)(O)CN1C(=O)N/C(=C\c2ccncc2)C1=O [Compound 61, 3-(2-Hydroxy-2-methyl-propyl)-5-[1-pyridin-4-yl-meth-(Z)-ylidene]-imidazolidine-2,4-dione]"
98.5 nM,35 nM,"O=C1N/C(=C\c2ccncc2)C(=O)N1CC1(O)CCC1 [Compound 59, 3-(1-Hydroxy-cyclobutylmethyl)-5-[1-pyridin-4-yl-meth-(Z)-ylidene]-imidazolidine-2,4-dione]"
,490 nM,"O=C(O)CN1C(=O)N/C(=C\c2ccncc2)C1=O [Compound 46, {2,5-Dioxo-4-[1-pyridin-4-yl-meth-(Z)-ylidene]-imidazolidin-1-yl}-acetic acid]"
81.8 nM,22 nM,"O=C1N/C(=C\c2ccncc2)C(=O)N1CC1CCCO1 (centres unmarked) [Compound 60, 5-[1-Pyridin-4-yl-meth-(Z)-ylidene]-3-(tetrahydro-furan-2-ylmethyl)-imidazolidine-2,4-dione]"
,214 nM,"O=C1N/C(=C\c2ccncc2)C(=O)N1C1CCC(O)CC1 (centres unmarked) [Compound 40, 3-(4-Hydroxy-cyclohexyl)-5-[1-pyridin-4-yl-meth-(Z)-ylidene]-imidazolidine-2,4-dione]"
,290 nM,"O=C1N/C(=C\c2ccncc2)C(=O)N1CCN1CCCC1 [Compound 37, 5-[1-Pyridin-4-yl-meth-(Z)-ylidene]-3-(2-pyrrolidin-1-yl-ethyl)-imidazolidine-2,4-dione]"
,52 nM,"O=C(c1ccc(N2C(=O)N/C(=C\c3ccncc3)C2=O)cc1)N1CCCC1 [Compound 48, 5-[1-Pyridin-4-yl-meth-(Z)-ylidene]-3-[4-(pyrrolidine-1-carbonyl)-phenyl]-imidazolidine-2,4-dione]"
,12 nM,"O=C1N/C(=C\c2ccncc2)C(=O)N1CC1(CO)CCC1 [Compound 63, 3-(1-Hydroxymethyl-cyclobutylmethyl)-5-[1-pyridin-4-yl-meth-(Z)-ylidene]-imidazolidine-2,4-dione]"
,65 nM,"O=C(NCCN1CCOCC1)c1cccc(N2C(=O)N/C(=C\c3ccncc3)C2=O)c1 [Compound 34, 3-{2,5-Dioxo-4-[1-pyridin-4-yl-meth-(Z)-ylidene]-imidazolidin-1-yl}-N-(2-morpholin-4-yl-ethyl)-benzamide]"
604 nM,57 nM,"O=C1N/C(=C\c2ccncc2)C(=O)N1CC(F)(F)F [Compound 62, 5-[1-Pyridin-4-yl-meth-(Z)-ylidene]-3-(2,2,2-trifluoro-ethyl)-imidazolidine-2,4-dione]"
,63 nM,"O=C(NC1CC1)c1ccc(N2C(=O)N/C(=C\c3ccncc3)C2=O)cc1 [Compound 50, N-Cyclopropyl-4-{2,5-dioxo-4-[1-pyridin-4-yl-meth-(Z)-ylidene]-imidazolidin-1-yl}-benzamide]"
,151 nM,"O=C1N/C(=C\c2ccncc2)C(=O)N1CCCN1CCOCC1 [Compound 44, 3-(3-Morpholin-4-yl-propyl)-5-[1-pyridin-4-yl-meth-(Z)-ylidene]-imidazolidine-2,4-dione]"
